Measured values: patent publication US4221794A, “Method of imparting immunomodulating and antiviral activity” (Newport Pharmaceuticals International, Inc., priority 1979, dated 1980)
Where two headings read alike, the source gives them in different places.

Experiments:
[1] = system: influenza virus; assay: microbe, parasite or virus in culture; assay type: cell-based, influenza virus Type A/USSR 90 (HeLa cell cultures); conditions: for inhibition at 100 µg/mL: read-out: % Inhibition of Hemadsorption Foci, Test Compound Conc. >100 μg/ml
[2] = system: human peripheral blood lymphocytes; assay: Mitogen (PHA) induced human lymphocyte proliferation; assay type: cell-based; conditions: plus = immunostimulating, minus = immunoinhibiting, 0 = neither
[3] = system: mouse lymphocytes; assay: Mitogen (Con A) induced mouse lymphocyte (spleen cell) proliferation; assay type: cell-based; conditions: plus = immunostimulating, minus = immunoinhibiting, 0 = neither
Text: The following three assay procedures are used to evaluate the ability of the test substances to modulate the activity of several classes of cells in the immune system. In these systems it is possible to identify both immunopotentiating activity (evidence by an enhancement of the parameter examined) as well as immunosuppressant activity (evidenced by an inhibition of the parameter examined).
1. Mitogen-Induced Mouse Spleen Cell Assay
Mouse spleen cells contain a population of both B and T lymphocytes which can be stimulated by a number of foreign substances (e.g., plant mitogens such as Con A) to proliferate. This enhanced proliferation is an indication of enhanced cell mediated immunity. The method below describes the system used to evaluate test substances as immunopotentiators.
Concanavalin A (Calbiochem, La Jolla, California), Lot #210073, lyophilized in NaCl, was prepared first as a 1% solution and diluted as a 2×concentration for each dilution (0.5, 1.0, 2.5 μg/ml).
Six to eight week old male Balb/c and C3 H inbred mice were obtained from the following sources: Flow Research Animals, Inc., Dublin, Virginia; Charles River Breeding Laboratories, Wilmington, Massachusetts; Laboratory Supply Company, Indianapolis, Indiana; and Lionel Strong Foundation, San Diego, California.
Three to five mice were sacrificed by cervical dislocation and the spleens aseptically removed. Pooled spleens were minced and teased with sterile forceps; then strained through a double layer of nylon mesh. The cell suspension was washed once with 15 ml of RPMI 1640 supplemented with 5% fetal calf serum and antibiotics. Cells were cultured at a concentration of 10^6 cells/0.1 ml/well in micro-plates. Cultures were incubated in the presence or absence of mitogen in a humidified atmosphere containing 5% CO2 for 48 hours. The test compound was added to cultures at various concentrations concommitant with mitogen.
Proliferation was assayed by the degree of incorporation of 1.0 μCi of [^3 H] thymidine over an 18 hour incubation period. Cultures were harvested by a MASH unit (Otto Hiller Co., Madison, Wisconsin) and thymidine incorporation was assayed by liquid scintillation spectrometry. Cultures were performed in triplicate and data are expressed as means plus or minus the standard error of the experimental means. Drug stimulation indices over control values were also calculated and portrayed graphically.
(§1) Table 4 above presents the results of an evaluation of a number of these subject compounds as potentiators of the immune response. Three different test systems were used. The first involves a measure of the ability of the test compound to enhance the ability of mouse lymphocytes to proliferate in response to a plant mitogen (Con A). The second involves measuring the ability of the test compounds to enhance human lymphocyte proliferation in response to a second plant mitogen (PHA). The third system measures the ability of these test substances to enhance macrophage proliferation in response to a natural lymphokine (MMF, Macrophage Mitogenic Factor).

[4] = system: influenza virus; assay: Anti-influenza activity (overall); assay type: cell-based, several strains of A and B sub-types
[5] = system: guinea pig macrophages; assay: Lymphokine (MMF) induced guinea pig macrophage proliferation; assay type: cell-based; conditions: plus = immunostimulating, minus = immunoinhibiting, 0 = neither
Method: 3. The macrophage represents a subpopulation of white blood cells which is an important component of the immune system in control of both cellular and humoral immunity. The assay system described below evaluates the substances studied as potentiators of macrophage function.
Phytohemagglutinin (PHA) (HA-17) was purchased from Burroughs Wellcome. A preparation containing Macrophage Mitogen Factor (MMF) and Macrophage Activating Factor (MAF) was prepared from antigen-stimulated immune lymph node lymphocytes (guinea pig) as previously described by Hadden et al, Nature 257, 483-485 (1975). […] The active fraction was employed in both the proliferation and activation assays.
Ficoll-hypaque purified human peripheral blood lymphocytes were prepared and PHA-induced lymphocyte proliferation was assayed by the incorporation of tritiated thymidine as described in Hadden et al., Cell. Immunol. 20, 98-103 (1975). Each compound was analyzed in the presence of suboptimal, optimal and supraoptimal concentrations of PHA (0.001, 0.01, 0.1 units/ml respectively). Paraffin oil-induced guinea pig peritoneal macrophages were prepared and incubated as monolayer culture (>98% pure macrophages). Lymphokine (MMF)-induced proliferation was assayed by the incorporation of tritiated thymidine at 3 and 5 days of culture as described, Hadden et al, Nature 257, 483-485 (1975). Lymphokine (MAF)-induced macrophage activation to kill Listeria monocytogenes following 5 days of culture in the presence or absence of MAF was performed during a 6 hour period as described in Hadden and England, Immunopharmacology, pages 87-100 (Plenum Press, 1977). Phagocytosis was quantitated during a 20-minute exposure to Listeria monocytogenes by counting the number of macrophages containing bacteria and the number of bacteria per phagocytic cell on gram stained monolayers in Labtek chambers. Intracellular killing of bacteria was evaluated by counting the number of cells containing bacteria and the number of bacteria/cell 6 hours after the initial 20 minute exposure. Parallel experiments in which macrophages were lysed and intracellular bacteria were cultured confirm the validity of bacterial activity determined by this manner in this system. The drugs were employed in each of the three systems over serial log concentration range in triplicate in the presence and absence of mitogen or lymphokine. Each type of experiment was performed at least three times. Previous experiments indicate a parallelism of response to pharmacologic modulation in the proliferation and achivation assays.
as §1

SMILES | Maximum Percent Change, Mitogen Induced (PHA) Human Lymph. Prolif. ([2]; 1.0-10 (unit not given)) | Maximum Percent Change, Mitogen Induced (PHA) Human Lymph. Prolif. ([2]; 10-100 (unit not given)) | Maximum Percent Change, Mitogen Induced (PHA) Human Lymph. Prolif. ([2]; .01-1.0 (unit not given)) | Maximum Percent Change, Mitogen Induced (Con A) Mouse Lymph. Prolif. ([3]; 1.0-10 (unit not given)) | Maximum Percent Change, Mitogen Induced (Con A) Mouse Lymph. Prolif. ([3]; .01-1.0 (unit not given)) | Maximum Percent Change, Mitogen Induced (Con A) Mouse Lymph. Prolif. ([3]; 10-100 (unit not given)) | potentiation of anti-influenza activity by DIP.PAcBA salt [4] | also measured
CC(CO)n1cnc2c(Cl)ncnc21 (stereo not drawn) [NPT 15423, 9-(1-HYDROXY-2-PROPANE)-6-CHLOROPURINE] |  |  |  |  |  |  |  | inhibition at 10 µg/mL ([1]; unidentified influenza virus, read-out: % Inhibition of Hemadsorption Foci, Test Compound Conc. <10 μg/ml): 2%; inhibition at 100 µg/mL ([1]; unidentified influenza virus): 6%
O=c1[nH]cnc2c1ncn2CCO [NPT 15425, 9-HYDROXYETHYL HYPOXANTHINE] | 0% | 0% | 100% | 0% | 11% |  |  | 
CC(O)Cn1cnc2c(N)ncnc21 (stereo not drawn) [NPT 15431, 9-(2-HYDROXY-1-PROPYL)ADENINE] | 0% | 0% | 0% | -27% | -15% | -47% |  | % Inhibition of Hemadsorption Foci ([1]; Test Compound Conc. >100 μg/ml, listed as 15431): 0%
CC(O)Cn1cnc2c(N)ncnc21 (stereo not drawn) [NPT 15432] |  |  |  |  |  |  | Yes | % Inhibition of Hemadsorption Foci ([1]; Test Compound Conc. >100 μg/ml, listed as 15432): 62%
CC(CO)n1cnc2c(N)ncnc21 (stereo not drawn) [NPT 15433, 9-(1-HYDROXY-2-PROPYL)ADENINE] | 0% | -50% | 53% | -23% | +15% | -65% |  | % Inhibition of Hemadsorption Foci ([1]; Test Compound Conc. >100 μg/ml, listed as 15433): 0%
CC(CO)n1cnc2c(N)ncnc21 (stereo not drawn) [NPT 15434] |  |  |  |  |  |  | Yes | % Inhibition of Hemadsorption Foci ([1]; Test Compound Conc. >100 μg/ml, listed as 15434): 62%
OCCn1cnc2c(=S)[nH]cnc21 [NPT 15435] | 45% | -50% | 55% |  |  |  |  | inhibition at 100 µg/mL ([1]; unidentified influenza virus): 10%
OCCn1cnc2c(S)ncnc21 [NPT 15437] |  |  |  |  |  |  | Yes | inhibition at 100 µg/mL ([1]; unidentified influenza virus): 65%
CC(CO)n1cnc2c(=O)[nH]cnc21 (stereo not drawn) [NPT 15443, 9-(1-HYDROXY-2-PROPYL)HYPOXANTHINE] | +13% | 0% | 0% | +27% | +17% | +27% |  | % Inhibition of Hemadsorption Foci ([1]; Test Compound Conc. >100 μg/ml, listed as 15443): 0%; Maximum Percent Change, Lymphokine Induced (MMF) Guinea Pig Mac. Prolif. ([5]; 1.0-10 (unit not given)): 0%; Maximum Percent Change, Lymphokine Induced (MMF) Guinea Pig Mac. Prolif. ([5]; .01-1.0 (unit not given)): +20%
CC(CO)n1cnc2c(=O)[nH]cnc21 (stereo not drawn) [NPT 15444] |  |  |  |  |  |  | Yes | % Inhibition of Hemadsorption Foci ([1]; Test Compound Conc. >100 μg/ml, listed as 15444): 54%
CC(O)Cn1cnc2c(=O)[nH]cnc21 (stereo not drawn) [NPT 15446, 9-(2-HYDROXY-1-PROPYL)HYPOXANTHINE] | 0% | 0% | 0% | 12% | 6% | 0% |  | % Inhibition of Hemadsorption Foci ([1]; Test Compound Conc. <10 μg/ml, listed as 15446): 2%; % Inhibition of Hemadsorption Foci ([1]; Test Compound Conc. >100 μg/ml, listed as 15446): 0%; Maximum Percent Change, Lymphokine Induced (MMF) Guinea Pig Mac. Prolif. ([5]; 1.0-10 (unit not given)): 0%; Maximum Percent Change, Lymphokine Induced (MMF) Guinea Pig Mac. Prolif. ([5]; 10-100 (unit not given)): 0%; Maximum Percent Change, Lymphokine Induced (MMF) Guinea Pig Mac. Prolif. ([5]; .01-1.0 (unit not given)): 0%
CC(O)Cn1cnc2c(=O)[nH]cnc21 (stereo not drawn) [NPT 15447] |  |  |  |  |  |  | Yes | % Inhibition of Hemadsorption Foci ([1]; Test Compound Conc. <10 μg/ml, listed as 15447): 10%; % Inhibition of Hemadsorption Foci ([1]; Test Compound Conc. >100 μg/ml, listed as 15447): 34%
CC(=O)Nc1ccc(C(=O)O)cc1.CC(O)CN(C)C [compound 15110, dimethylamino-2-propanol-p-acetamido benzoate, reference compound] |  |  |  |  |  |  |  | % Inhibition of Hemadsorption Foci [1]: 0%
